This passage reports IC50, Selectivity and log10(IC50 MMP-3/IC50 MMP-8) results from ChEMBL document CHEMBL1132460, “Affinity and selectivity of matrix metalloproteinase inhibitors: a chemometrical study from the perspective of ligands and proteins” (J Med Chem, 1999).

The target in experiment [1] is Stromelysin-1 (Homo sapiens, UniProt P08254). Kind of experiment: Inhibitory concentration against human matrix metalloprotease-3 (MMP-3). The conditions noted are these: for pIC50: read-out: IC50.
Experiment [2] addresses Neutrophil collagenase (Homo sapiens, UniProt P22894). In words: Inhibitory concentration against human matrix metalloprotease-8 (human neutrophil collagenase, MMP-8).
Experiment [3] can be described thus: Affinity ratio of IC50 of MMP-8 to IC50 of MMP-3.
A short description of experiment [4]: Affinity ratio of IC50 of MMP-3 to IC50 of MMP-8.

Each structure is given as a SMILES string. pIC50: −log10 of the molar value.

Sequence of Neutrophil collagenase (P22894 whole entry): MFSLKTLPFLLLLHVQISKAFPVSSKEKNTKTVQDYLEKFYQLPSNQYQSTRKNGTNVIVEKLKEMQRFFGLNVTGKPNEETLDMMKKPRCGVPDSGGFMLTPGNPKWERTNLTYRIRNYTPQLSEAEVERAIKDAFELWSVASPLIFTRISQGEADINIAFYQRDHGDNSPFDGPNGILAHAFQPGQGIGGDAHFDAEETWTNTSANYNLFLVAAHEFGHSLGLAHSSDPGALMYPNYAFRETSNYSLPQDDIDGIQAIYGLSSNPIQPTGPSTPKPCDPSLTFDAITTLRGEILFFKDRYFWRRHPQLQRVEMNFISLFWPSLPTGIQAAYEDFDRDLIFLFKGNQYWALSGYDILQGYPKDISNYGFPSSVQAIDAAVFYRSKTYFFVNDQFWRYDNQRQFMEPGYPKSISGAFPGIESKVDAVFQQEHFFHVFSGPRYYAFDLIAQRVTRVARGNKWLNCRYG
Sequence of Stromelysin-1 (P08254 whole entry): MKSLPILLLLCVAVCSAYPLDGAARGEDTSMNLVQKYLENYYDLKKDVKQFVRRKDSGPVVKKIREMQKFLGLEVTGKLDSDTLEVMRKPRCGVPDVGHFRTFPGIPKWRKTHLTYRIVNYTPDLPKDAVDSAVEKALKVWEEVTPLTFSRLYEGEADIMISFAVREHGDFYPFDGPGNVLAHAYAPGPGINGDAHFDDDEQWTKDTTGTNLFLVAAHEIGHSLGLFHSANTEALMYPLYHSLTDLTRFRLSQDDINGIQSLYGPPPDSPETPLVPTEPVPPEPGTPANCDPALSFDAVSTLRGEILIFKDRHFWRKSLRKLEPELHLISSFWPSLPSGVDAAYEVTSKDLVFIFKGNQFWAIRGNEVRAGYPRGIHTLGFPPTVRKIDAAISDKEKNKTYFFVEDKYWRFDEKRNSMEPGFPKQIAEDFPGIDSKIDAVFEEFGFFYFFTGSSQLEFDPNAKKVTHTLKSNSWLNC

In experiment [1], `COc1ccc(S(=O)(=O)N2Cc3cc(N)ccc3CC2C(=O)O)cc1` (stereo unspecified) registered an IC50 of 10000 nM l-1. The molecule also showed a pIC50 in experiment [2] of 5.70. Moreover, the Selectivity in experiment [3] came out at 0.7.

Take `O=C(O)[C@H]1Cc2ccccc2CN1S(=O)(=O)c1ccc(-c2ccc(F)cc2)cc1`: the negative logarithm of the IC50 (pIC50) in experiment [1] is 6.40. Further, the Selectivity in experiment [3] was 1.3.

Consider `CC(C)(C)OC(=O)Nc1ccc2c(c1)CC(C(=O)O)N(S(=O)(=O)c1ccc(-c3ccc(F)cc3)cc1)C2` (stereo unspecified), for which the pIC50 was 6.40 in experiment [1] and 7.52 in experiment [2]. Moreover, the Selectivity in experiment [3] was determined as 1.12.

On to `O=C(NO)C1Cc2ccccc2CN1S(=O)(=O)Cc1ccc(-c2ccccn2)s1` (stereo unspecified), for which the pIC50 in experiment [1] is 7.70; in experiment [2] it was 8.70. Further, the log10(IC50 MMP-3/IC50 MMP-8) in experiment [4] is 1.

On to `O=C(NO)C1Cc2ccccc2CN1S(=O)(=O)c1ccc(C(F)(F)F)cc1` (stereo unspecified), for which the figures for the pIC50 in experiment [1] and in experiment [2] were 6.30 and 7.30, respectively. In addition, the log10(IC50 MMP-3/IC50 MMP-8) in experiment [4] came to 1.

As for `COc1ccc(S(=O)(=O)N2Cc3cc(NC(=O)[C@H](C)NC(=O)OC(C)(C)C)ccc3CC2C(=O)NO)cc1` (stereo partly specified), the pIC50 in experiment [1] was 7.70; in experiment [2], 8.70. Moreover, the log10(IC50 MMP-3/IC50 MMP-8) in experiment [4] worked out at 1.

Consider `O=C(NO)C1Cc2ccccc2CN1S(=O)(=O)c1ccc(-c2ccon2)s1` (stereo unspecified), for which the results for the pIC50 in experiment [1] and in experiment [2] were 7.30 and 8.10, respectively. Moreover, the log10(IC50 MMP-3/IC50 MMP-8) in experiment [4] turned out to be 0.8.

In the case of `O=C(NO)C1Cc2ccccc2CN1S(=O)(=O)c1ccc(N2CCOCC2)cc1` (stereo unspecified), the pIC50 was 6.52 in experiment [1] and 7.00 in experiment [2]. In addition, the log10(IC50 MMP-3/IC50 MMP-8) in experiment [4] worked out at 0.48.

Turning to `O=C(NO)C1Cc2ccccc2CN1S(=O)(=O)CCc1ccncc1` (stereo unspecified), the negative logarithm of the IC50 (pIC50) in experiment [1] is 6.05; in experiment [2], 7.52. Besides, the log10(IC50 MMP-3/IC50 MMP-8) in experiment [4] worked out at 1.48.

Consider `COc1ccc(S(=O)(=O)N2Cc3cc(O)ccc3CC2C(=O)NO)cc1` (stereo unspecified), for which the pIC50 was 8.00 in experiment [1] and 9.00 in experiment [2]. For the same molecule, the log10(IC50 MMP-3/IC50 MMP-8) in experiment [4] came out at 1.

For `COc1ccc(S(=O)(=O)N2Cc3cc(O)ccc3CC2C(=O)O)cc1` (stereo unspecified), the IC50 in experiment [1] amounted to 10000 nM l-1. Besides, the pIC50 in experiment [2] is 5.52. Also, the Selectivity in experiment [3] worked out at 0.52.

Take `CN(C)c1ccc(Oc2ccc(S(=O)(=O)N3Cc4ccccc4CC3C(=O)NO)cc2)cc1` (stereo unspecified): the pIC50 in experiment [1] is 7.52; in experiment [2], 8.70. Also, the log10(IC50 MMP-3/IC50 MMP-8) in experiment [4] is 1.18.

With `COC(=O)c1csc(S(=O)(=O)N2Cc3ccccc3CC2C(=O)NO)c1OC` (stereo unspecified), the pIC50 is 6.15 in experiment [1] and 7.10 in experiment [2]. In experiment [4], the log10(IC50 MMP-3/IC50 MMP-8) amounted to 0.94.

For `O=C(NO)C1Cc2ccccc2CN1S(=O)(=O)c1cc(S(=O)(=O)c2ccccc2)cs1` (stereo unspecified), the IC50 in experiment [1] stood at 10000 nM l-1. The molecule further showed a pIC50 in experiment [2] of 5.70. Moreover, the log10(IC50 MMP-3/IC50 MMP-8) in experiment [4] is 0.7.

Take `COc1ccc(S(=O)(=O)N2Cc3cc(NC(=O)OC(C)(C)C)ccc3CC2C(=O)NO)cc1` (stereo unspecified): the pIC50 is 7.70 in experiment [1] and 8.52 in experiment [2]. Further, the log10(IC50 MMP-3/IC50 MMP-8) in experiment [4] came out at 0.82.

Consider `COc1ccc(S(=O)(=O)N2Cc3cc(NC(=O)[C@H](C)N)ccc3CC2C(=O)O)cc1` (stereo partly specified), for which the IC50 in experiment [1] worked out at 10000 nM l-1. Besides, in experiment [2], the pIC50 is 5.70. Also, the Selectivity in experiment [3] came out at 0.7.

With `O=C(c1ccccc1)c1ccc(S(=O)(=O)N2Cc3ccccc3CC2C(=O)NO)cc1` (stereo unspecified), the pIC50 in experiment [1] was 7.52; in experiment [2] it was 8.52. Moreover, the log10(IC50 MMP-3/IC50 MMP-8) in experiment [4] is 1.

`COc1ccc(S(=O)(=O)N2Cc3ncn(C)c3C[C@@H]2C(=O)O)cc1` had an IC50 in experiment [1] of 10000 nM l-1. Moreover, in experiment [2], the pIC50 was 6.00. The log10(IC50 MMP-3/IC50 MMP-8) in experiment [4] came to 1.

Consider `COc1ccc(S(=O)(=O)Oc2ccc3c(c2)CN(S(=O)(=O)c2ccc(OC)cc2)C(C(=O)NO)C3)cc1` (stereo unspecified), for which the pIC50 in experiment [1] is 7.52; in experiment [2], 8.10. Besides, in experiment [4], the log10(IC50 MMP-3/IC50 MMP-8) was 0.57.

On to `O=C(NO)C1Cc2ccccc2CN1S(=O)(=O)c1ccc(Oc2ccccc2)cc1` (stereo unspecified), for which the negative logarithm of the IC50 (pIC50) in experiment [1] was 7.70; in experiment [2], 8.70. In experiment [4], the log10(IC50 MMP-3/IC50 MMP-8) is 1.

`O=C(NO)C1Cc2ccccc2CN1S(=O)(=O)c1ccc(-c2ccc(Cl)cc2)cc1` (stereo unspecified): the pIC50 in experiment [1] was 7.70; in experiment [2], 8.52. In addition, the log10(IC50 MMP-3/IC50 MMP-8) in experiment [4] came out at 0.82.

In experiment [1], `CCCCCCCCCCCCCCCCS(=O)(=O)N1Cc2ccccc2CC1C(=O)NO` (stereo unspecified) showed an IC50 of 10000 nM l-1. This molecule also showed a pIC50 in experiment [2] of 5.52. The log10(IC50 MMP-3/IC50 MMP-8) in experiment [4] was determined as 0.52.

With `O=C(NO)C1Cc2ccccc2CN1S(=O)(=O)c1ccc2oc3ccccc3c2c1` (stereo unspecified), the pIC50 in experiment [1] was 7.00; in experiment [2], 8.00. Also, in experiment [4], the log10(IC50 MMP-3/IC50 MMP-8) turned out to be 1.

`O=C(O)[C@@H]1Cc2ccccc2CN1S(=O)(=O)c1ccc(-c2ccc(F)cc2)cc1` gave an IC50 in experiment [1] of 10000 nM l-1. Moreover, the Selectivity in experiment [3] was determined as 0.4.

Regarding `Nc1ccc2c(c1)CN(S(=O)(=O)c1ccc(-c3ccc(F)cc3)cc1)C(C(=O)NO)C2` (stereo unspecified), the pIC50 is 7.70 in experiment [1] and 8.70 in experiment [2]. In experiment [4], the log10(IC50 MMP-3/IC50 MMP-8) worked out at 1.

Turning to `CN(C)c1ccc(-c2ccc(S(=O)(=O)N3Cc4ccccc4CC3C(=O)NO)cc2)cc1` (stereo unspecified), the pIC50 in experiment [1] is 7.70; in experiment [2], 8.70. The log10(IC50 MMP-3/IC50 MMP-8) in experiment [4] came to 1.

One may read the pIC50 as the negative decadic logarithm of the IC50, by convention in mol/L.
